Values of other authors in patent US20220000787A1, “DELAYED RELEASE PHARMACEUTICAL COMPOSITION OF PREDNISONE AND PREPARATION THEREOF” (PIRAMAL PHARMA LIMITED, priority 2020, published 2022).

In the case of `C[C@]12C=CC(=O)C=C1CC[C@@H]1[C@@H]2C(=O)C[C@@]2(C)[C@H]1CC[C@]2(O)C(=O)CO` [Prednisone, 17,21-dihydroxypregna-1,4-diene-3,11,20-trione], the “Solubility in alcohol, chloroform, dioxane, and methanol” value (alcohol, chloroform, dioxane, methanol) is listed as “slightly soluble” and the Solubility in water (water) is listed as “very slightly soluble”.
